Values after ≈ are worked out from the molar mass of the structure shown.
Tests used:
[1] = biological target: Cholinesterase (Equus caballus, UniProt P81908); experiment: Inhibition of horse serum BChE
[2] = biological target: Cholinesterase (Equus caballus) (UniProt P81908); experiment: Inhibition of horse serum BChE at 10 uM
[3] = tested on: Staphylococcus aureus; experiment: Antibacterial activity against methicillin-resistant Staphylococcus aureus; assay type: functional
[4] = tested on: MCF7; experiment: Cytotoxicity against human MCF7 cells assessed as cell growth inhibition after 48 hrs by SRB assay; assay type: functional, cell-based; conditions: MCF7, 48 h
[5] = tested on: HOP-92; experiment: Cytotoxicity against human HOP92 cells assessed as cell growth inhibition after 48 hrs by SRB assay; assay type: functional, cell-based; conditions: HOP-92, 48 h
[6] = tested on: Hs-578T; experiment: Cytotoxicity against human Hs578T cells assessed as cell growth inhibition after 48 hrs by SRB assay; assay type: functional, cell-based
[7] = tested on: 786-0; experiment: Cytotoxicity against human 786-O cells assessed as cell growth inhibition after 48 hrs by SRB assay; assay type: functional, cell-based; conditions: 786-0, 48 h
[8] = tested on: SNB-75; experiment: Cytotoxicity against human SNB75 cells assessed as cell growth inhibition after 48 hrs by SRB assay; assay type: functional, cell-based; conditions: SNB-75, 48 h
[9] = tested on: Candida albicans; experiment: microbe, parasite or virus in culture
[10] = tested on: Bacillus subtilis; experiment: Antibacterial activity against Bacillus subtilis; assay type: functional; conditions: Bacillus subtilis
[11] = tested on: SNB-19; experiment: Cytotoxicity against human SNB19 cells incubated for 72 hrs by WST1 dye based assay; assay type: functional, cell-based; conditions: SNB-19, 72 h
[12] = tested on: Rattus norvegicus; experiment: Antiinflammatory activity in rat assessed as inhibition of yeast-induced foot edema at 60 mg/kg; assay type: functional
[13] = Toxicity in rat assessed as survival rate at 50 mg/kg; assay type: organism-based; conditions: in vivo
[14] = Inhibition of lipoxygenase in rat peritoneal cavity resident cells
[15] = tested on: Mycobacterium tuberculosis; experiment: Antitubercular activity against Mycobacterium tuberculosis H37Rv; assay type: functional
[16] = tested on: Enterococcus faecalis; experiment: Antibacterial activity against Enterococcus faecalis; assay type: functional
[17] = tested on: Escherichia coli; experiment: Antibacterial activity against Escherichia coli; assay type: functional; conditions: Escherichia coli
[18] = Oral bioavailability in rat at 3 mg/kg; assay type: ADME, organism-based; conditions: in vivo
[19] = biological target: Vascular cell adhesion protein 1 (Homo sapiens, UniProt P19320); experiment: Inhibition of VCAM1 (unknown origin)
[20] = tested on: Mus musculus; experiment: Anti-inflammatory activity in mouse IL-1-induced paw inflammation model assessed as inhibition of neutrophil infiltration at 10 mg/kg, po; assay type: functional; conditions: Mus musculus, po
[21] = biological target: Intercellular adhesion molecule 1 (Homo sapiens, UniProt P05362); experiment: Inhibition of ICAM1 (unknown origin)
[22] = tested on: Rattus norvegicus; experiment: Anti-asthmatic activity in rat assessed as inhibition of egg albumin-induced duration of symptoms of dyspnoea at 3 mg/kg, po administered 90 mins prior to dyspnoea induction; assay type: functional
[23] = tested on: Rattus norvegicus; experiment: Anti-asthmatic activity in rat assessed as inhibition of egg albumin-induced duration of symptoms of dyspnoea at 5 mg/kg, po administered 90 mins prior to dyspnoea induction; assay type: functional
[24] = Inhibition of LTB4 formation in rat polymorphonuclear leukocytes preincubated for 2 mins followed by A-23187 addition after 4 mins; assay type: functional, cell-based
[25] = biological target: Lipoxygenase (Glycine max, UniProt Q39829); experiment: Inhibition of soybean lipoxygenase using linoleic acid as substrate preincubated for 5 mins followed by substrate addition measuredf after 7 mins by solution A/B solution based assay
[26] = tested on: Bacillus cereus; experiment: Antibacterial activity against Bacillus cereus; assay type: functional, organism-based
[27] = tested on: Salmonella typhimurium; experiment: Antibacterial activity against Salmonella typhimurium; assay type: functional, Salmonella enterica subsp. enterica serovar Typhimurium; conditions: Salmonella enterica
[28] = tested on: Human immunodeficiency virus; experiment: Antiviral activity against HIV infected in human MT4 cells; assay type: functional, organism-based; conditions: Human immunodeficiency virus 1, MT4
[29] = tested on: Aspergillus niger; experiment: Antifungal activity against Aspergillus niger; assay type: functional
[30] = tested on: Staphylococcus aureus; experiment: Antibacterial activity against Staphylococcus aureus; assay type: functional; conditions: Staphylococcus aureus; read-out: MIC
[31] = tested on: Ancylostoma caninum; experiment: Anthelmintic activity against dog hookworm larvae infected in mouse assessed as protection against infection rate at 0.06%; assay type: functional
[32] = tested on: Aspergillus niger; experiment: Antifungal activity against Aspergillus niger by CLSI protocol based method; assay type: functional
[33] = Antioxidant activity assessed as DPPH radical scavenging activity; assay type: functional; conditions: dose or concentration not given here
[34] = organism: Mus musculus; experiment: Antioxidant activity in Swiss albino mouse assessed as GSH level per mg tissue; assay type: functional
[35] = organism: Mus musculus; experiment: Antioxidant activity in Swiss albino mouse assessed as LPO level per mg tissue; assay type: functional
[36] = tested on: Staphylococcus aureus; experiment: Antimicrobial activity against Staphylococcus aureus assessed as reduction in bacterial growth at 100 ppm relative to control; assay type: functional
[37] = tested on: Trichophyton mentagrophytes; experiment: Antimicrobial activity against Trichophyton mentagrophytes assessed as reduction in microbial growth at 100 ppm relative to control; assay type: functional
[38] = tested on: Aspergillus terreus; experiment: Antimicrobial activity against Aspergillus terreus assessed as reduction in microbial growth at 100 ppm relative to control; assay type: functional
[39] = tested on: Aureobasidium pullulans; experiment: Antimicrobial activity against Pullularia pullulans assessed as reduction in microbial growth at 100 ppm relative to control; assay type: functional
[40] = tested on: Candida albicans; experiment: Antimicrobial activity against Candida albicans assessed as reduction in […] growth at 100 ppm relative to control; assay type: functional

Cholinesterase (Equus caballus), sequence (P81908 whole entry): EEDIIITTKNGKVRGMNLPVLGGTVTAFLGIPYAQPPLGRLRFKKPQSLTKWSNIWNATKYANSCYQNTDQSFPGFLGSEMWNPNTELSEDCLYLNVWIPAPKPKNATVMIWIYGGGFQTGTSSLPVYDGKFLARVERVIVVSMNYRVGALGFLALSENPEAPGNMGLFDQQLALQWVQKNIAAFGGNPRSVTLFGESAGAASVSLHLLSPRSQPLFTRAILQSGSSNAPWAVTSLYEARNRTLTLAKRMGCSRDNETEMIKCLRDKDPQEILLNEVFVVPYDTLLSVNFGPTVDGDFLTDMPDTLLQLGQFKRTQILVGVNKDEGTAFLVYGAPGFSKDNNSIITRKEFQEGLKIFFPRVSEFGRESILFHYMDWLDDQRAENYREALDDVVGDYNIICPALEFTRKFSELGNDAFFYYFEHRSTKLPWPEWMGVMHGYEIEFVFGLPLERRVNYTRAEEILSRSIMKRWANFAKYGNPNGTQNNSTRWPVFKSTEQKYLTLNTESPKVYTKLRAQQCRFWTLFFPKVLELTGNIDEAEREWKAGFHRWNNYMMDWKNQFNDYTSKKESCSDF
Cholinesterase, sequence (P81908 whole entry): as above
Vascular cell adhesion protein 1, sequence (P19320 whole entry): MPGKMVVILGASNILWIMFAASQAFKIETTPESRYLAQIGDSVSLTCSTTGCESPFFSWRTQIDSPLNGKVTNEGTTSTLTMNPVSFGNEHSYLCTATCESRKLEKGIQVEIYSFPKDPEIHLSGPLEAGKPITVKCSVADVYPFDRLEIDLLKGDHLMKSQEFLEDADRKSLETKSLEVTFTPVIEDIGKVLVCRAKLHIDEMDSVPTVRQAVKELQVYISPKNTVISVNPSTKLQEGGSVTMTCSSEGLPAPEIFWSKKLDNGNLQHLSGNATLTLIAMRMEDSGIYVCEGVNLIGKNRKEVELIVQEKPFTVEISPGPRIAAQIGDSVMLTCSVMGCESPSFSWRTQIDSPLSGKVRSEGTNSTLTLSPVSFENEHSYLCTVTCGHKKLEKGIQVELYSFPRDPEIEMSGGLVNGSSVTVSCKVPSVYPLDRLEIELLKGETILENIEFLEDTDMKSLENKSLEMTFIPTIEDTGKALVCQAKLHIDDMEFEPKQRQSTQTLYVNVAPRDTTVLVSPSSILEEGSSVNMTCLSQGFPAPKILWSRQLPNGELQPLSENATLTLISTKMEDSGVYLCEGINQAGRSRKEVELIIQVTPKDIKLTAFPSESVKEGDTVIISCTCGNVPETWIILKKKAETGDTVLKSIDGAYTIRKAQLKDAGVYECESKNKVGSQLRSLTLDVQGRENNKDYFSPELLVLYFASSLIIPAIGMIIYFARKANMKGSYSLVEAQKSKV
Intercellular adhesion molecule 1, sequence (P05362 whole entry): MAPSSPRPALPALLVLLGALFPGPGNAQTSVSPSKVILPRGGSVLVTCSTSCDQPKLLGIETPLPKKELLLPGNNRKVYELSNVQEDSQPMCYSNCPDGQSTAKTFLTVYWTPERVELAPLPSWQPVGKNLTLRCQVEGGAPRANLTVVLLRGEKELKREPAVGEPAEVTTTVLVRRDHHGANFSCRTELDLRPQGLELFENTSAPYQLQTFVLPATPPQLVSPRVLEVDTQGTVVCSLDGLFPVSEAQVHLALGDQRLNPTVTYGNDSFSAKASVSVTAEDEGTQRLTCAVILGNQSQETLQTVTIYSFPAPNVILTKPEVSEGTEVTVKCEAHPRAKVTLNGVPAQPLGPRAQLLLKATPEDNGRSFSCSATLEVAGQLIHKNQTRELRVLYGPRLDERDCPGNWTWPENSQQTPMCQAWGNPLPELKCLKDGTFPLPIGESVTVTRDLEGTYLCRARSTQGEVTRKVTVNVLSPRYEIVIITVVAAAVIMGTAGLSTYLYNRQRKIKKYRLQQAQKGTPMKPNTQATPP

O=C(NCCCl)NCCCN1c2nc3ccccc3cc2Sc2cc3ccccc3nc21
IC50 [1]: 2900 nM | inhibition [2]: 83.2%

O=C(O)c1cn(C2CC2)c2c3c(c(F)cc2c1=O)Sc1cc(Cl)ccc1N3
MIC [3]: ≥ 100 µg/mL

CCN(CC)CCN1c2nc3ccccc3cc2Sc2cc3ccccc3nc21
IC50 [4]: ≤ 1000 nM | IC50 [5]: ≤ 1000 nM

Cc1ccc(S(=O)(=O)NCCN2c3nc4ccccc4cc3Sc3cc4ccccc4nc32)cc1
IC50 [6]: 1700 nM | IC50 [7]: 480 nM | IC50 [8]: 1700 nM

O=[N+]([O-])c1ccc2c(c1)N=c1c(c3c(c4ccccc14)=Nc1ccccc1S3)O2
MIC [9]: 100 µg/mL (≈ 252 µM) | MIC [10]: 45.7 µg/mL (≈ 115 µM)

C=CCN1c2cccnc2Sc2cccnc21
IC50 [11]: 18.9 µg/mL (≈ 78.3 µM)

Cn1c(=O)nc2sc3ccccc3nc-2c1=O
inhibition in vivo at 60 mg/kg [12]: 69% | survival [13]: 69% | IC50 [14]: 1400 nM

CN(C)CCCN1c2nc3ccccc3cc2Sc2cc3ccccc3nc21
IC50 [4]: ≤ 1000 nM | IC50 [5]: ≤ 1000 nM

O=c1[nH]c2ccc(Cl)cc2c2c1Sc1cc(Cl)ccc1N2
MIC [15]: > 6.25 µg/mL

C[n+]1cc2c(c3ccccc31)Nc1ccccc1S2.[Cl-]
MIC [16]: 6 µg/mL | MIC [17]: 7 µg/mL

O=C(O)CC1C2CCCC1CN(Cc1ccc3c(c1)Nc1nccnc1S3)C2 (stereo in doubt; 64c)
bioavailability [18]: 98.5% | IC50 [19]: 2500 nM | inhibition in vivo at 10 mg/kg [20]: 91.5% | IC50 [21]: 3 µM

CN1c2ccc(O)c(Cl)c2Sc2nccnc21
inhibition in vivo at 3 mg/kg [22]: 43% | inhibition in vivo at 5 mg/kg [23]: 47% | IC50 [24]: 0.05 to 1 µg/mL (≈ 0.188 to 3.76 µM)

CN1CCN(c2ncc3c(n2)Sc2ccccc2N3)CC1
IC50 [25]: 87.7 µM

C[n+]1cc2c(c3ccccc31)Nc1ccc(Cl)cc1S2.[Cl-]
MIC [16]: 4 µg/mL | MIC [17]: 6 µg/mL

CSc1ccc2c(c1)Sc1cc3ccccc3nc1N2CCC1CCCCN1C (stereo not drawn)
IC50 [1]: 24.4 nM | inhibition [2]: 99.9%

Cc1ccc2c(c1)Sc1c(F)cc3c(=O)c(C(=O)O)cn(C4CC4)c3c1N2
MIC [3]: 1.5 µg/mL (≈ 3.92 µM) | MIC [17]: 1.5 µg/mL (≈ 3.92 µM) | MIC [26]: 1.5 µg/mL (≈ 3.92 µM) | MIC [27]: 1.5 µg/mL (≈ 3.92 µM)

CCOCn1c(=O)[nH]c2c(c1=O)Nc1ccc(Cl)cc1S2
IC50 [28]: 4.3 µM

Oc1ncnc2c1N=c1c(c3c(c4ccccc14)=Nc1ccccc1S3)O2
MIC [29]: 79.4 µg/mL (≈ 214 µM) | MIC [17]: 87.1 to 97.1 µg/mL (≈ 235 to 262 µM) | MIC [26]: 66.1 µg/mL (≈ 178 µM)

Oc1ccc2c(c1)Sc1nccnc1N2
inhibition in vivo at 3 mg/kg [22]: 43% | inhibition in vivo at 5 mg/kg [23]: 47% | IC50 [24]: 0.05 to 1 µg/mL (≈ 0.23 to 4.6 µM)

Nc1nc(O)c2c(n1)N=c1c(c3c(c4ccccc14)=Nc1ccccc1S3)S2
MIC [9]: 91.2 µg/mL (≈ 227 µM) | MIC [30]: 79.4 µg/mL (≈ 198 µM)

Clc1nc2c(nc1Cl)Sc1ccccc1N2
Activity [31]: 90%

Cc1nc(N2CCN(C)CC2)nc2c1Nc1ccccc1S2
IC50 [25]: 21.2 µM

CC(=O)N1CCN(c2ccc(OCC3COC(Cn4ccnc4)(c4ccc(Cl)cc4Cl)O3)cc2)CC1 (stereo not drawn) [KETOCONAZOLE]
MIC [32]: 136 µg/mL (≈ 255 µM) | MIC [9]: 62.2 µg/mL (≈ 117 µM) | MIC [29]: 136 µg/mL (≈ 255 µM)

COc1ccc2c(c1)c1c(c3nc4ccccc4c(=O)n32)Sc2cccc(OC)c2N1
inhibition [33]: 45.6 to 47.3% | Activity [34]: 6.8 nM | Activity [35]: 4.5 to 4.6 nM

Clc1nc2c(nc1Cl)N(CCCN1CCCC1)c1ccccc1S2
inhibition at 100 ppm [36]: 100% | inhibition at 100 ppm [37]: 100% | inhibition at 100 ppm [38]: 100% | inhibition at 100 ppm [39]: 100% | inhibition at 100 ppm [40]: 100%

Cn1c(=O)[nH]c2c(c1=O)Nc1ccccc1S2
IC50 [14]: 1900 nM

From ChEMBL document CHEMBL4138122, “Azaphenothiazines - promising phenothiazine derivatives. An insight into nomenclature, synthesis, structure elucidation and biological properties” (Eur J Med Chem, 2017)
